Literature values as cited in PubChem BioAssay AID1259409 (Chemical Carcinogenesis Research Information System (CCRIS), 2018).

System: rodent chemically induced tumor inhibition, incidence and multiplicity
Assay: CCRIS tumor inhibitor studies
Details: 937-40-6, Dose [Inhibitor]: 0, Route [Inhibitor]: ORAL, Species: RAT, Promoter: NONE USED

O=c1oc2c(O)c(O)cc3c(=O)oc4c(O)c(O)cc1c4c23
tumour outcome (control, treated, inhibition, significance) (Carcinogen: N-NITROSOBENZYLMETHYLAMINE, 1.2 UMOL/G IN DIET FOR DURATION OF STUDY BEGINNING 2 WK PRIOR TO CARCINOGEN TREATMENT (STUDY DURATION: 20 WK), Strain/Sex: F344/MALE, Target Tissue: Type of Lesion: ESOPHAGUS: TUMORS, Dose [Carcinogen]: 0.5 MG/KG IN 0.1 ML OF DMSO 1/WK FOR 18 WK): 15/15 (100%), 14/15 (93%), 7%, not significant | tumour outcome (control, treated, inhibition, significance) (Carcinogen: N-NITROSOBENZYLMETHYLAMINE, 1.2 UMOL/G IN DIET FOR DURATION OF STUDY BEGINNING 2 WK PRIOR TO CARCINOGEN TREATMENT (STUDY DURATION: 20 WK), Strain/Sex: F344/MALE, Target Tissue: Type of Lesion: ESOPHAGUS: TUMORS, Dose [Carcinogen]: 1.25 MG/KG IN 0.1 ML OF DMSO 1/WK FOR 18 WK): 15/15 (100%), 15/15 (100%), 0%, not significant | tumour outcome (control, treated, inhibition, significance) (Carcinogen: N-NITROSOBENZYLMETHYLAMINE, 1.2 UMOL/G IN DIET FOR DURATION OF STUDY BEGINNING 2 WK PRIOR TO CARCINOGEN TREATMENT (STUDY DURATION: 27 WK), Strain/Sex: F344/MALE, Target Tissue: Type of Lesion: ESOPHAGUS: TUMORS, Dose [Carcinogen]: 0.5 MG/KG IN 0.1 ML OF DMSO 1/WK FOR 18 WK): 15/15 (100%), 15/15 (100%), 0%, not significant | tumour outcome (control, treated, inhibition, significance) (Carcinogen: N-NITROSOBENZYLMETHYLAMINE, 1.2 UMOL/G IN DIET FOR DURATION OF STUDY BEGINNING 2 WK PRIOR TO CARCINOGEN TREATMENT (STUDY DURATION: 27 WK), Strain/Sex: F344/MALE, Target Tissue: Type of Lesion: ESOPHAGUS: TUMORS, Dose [Carcinogen]: 1.25 MG/KG IN 0.1 ML OF DMSO 1/WK FOR 18 WK): 15/15 (100%), 15/15 (100%), 0%, not significant | tumour outcome (control, treated, inhibition, significance) (Carcinogen: N-NITROSOBENZYLMETHYLAMINE, 4 G/KG IN DIET BEGINNING 2 WK PRIOR TO FIRST CARCINOGEN DOSE (STUDY DURATION: 20 WK), Strain/Sex: F-344/MALE, Target Tissue: Type of Lesion: ESOPHAGUS: TUMOR, Dose [Carcinogen]: 0.5, 1.25 MG/KG 1/WK FOR 18 WK): 15/15 (100%), 12/15 (80%), 20%, not calculated (low dose carcinogen); 15/15 (100 | tumour outcome (control, treated, inhibition, significance) (Carcinogen: N-NITROSOBENZYLMETHYLAMINE, 4 G/KG IN DIET BEGINNING 2 WK PRIOR TO FIRST CARCINOGEN DOSE (STUDY DURATION: 27 WK), Strain/Sex: F-344/MALE, Target Tissue: Type of Lesion: ESOPHAGUS: TUMOR, Dose [Carcinogen]: 0.5, 1.25 MG/KG 1/WK FOR 18 WK): 15/15 (100%), 15/15 (100%), 0%, not calculated (low dose carcinogen); 15/15 (100 | tumour outcome (control, treated, inhibition, significance) (Carcinogen: N-NITROSOBENZYLMETHYLAMINE, 12 UMOL/G IN DIET FOR DURATION OF STUDY BEGINNING 2 WK PRIOR TO CARCINOGEN TREATMENT (STUDY DURATION: 20 WK), Strain/Sex: F344/MALE, Target Tissue: Type of Lesion: ESOPHAGUS: TUMORS, Dose [Carcinogen]: 0.5 MG/KG IN 0.1 ML OF DMSO 1/WK FOR 18 WK): 15/15 (100%), 12/15 (80%), 20%, not significant | tumour outcome (control, treated, inhibition, significance) (Carcinogen: N-NITROSOBENZYLMETHYLAMINE, 12 UMOL/G IN DIET FOR DURATION OF STUDY BEGINNING 2 WK PRIOR TO CARCINOGEN TREATMENT (STUDY DURATION: 20 WK), Strain/Sex: F344/MALE, Target Tissue: Type of Lesion: ESOPHAGUS: TUMORS, Dose [Carcinogen]: 1.25 MG/KG IN 0.1 ML OF DMSO 1/WK FOR 18 WK): 15/15 (100%), 15/15 (100%), 0%, not significant | tumour outcome (control, treated, inhibition, significance) (Carcinogen: N-NITROSOBENZYLMETHYLAMINE, 12 UMOL/G IN DIET FOR DURATION OF STUDY BEGINNING 2 WK PRIOR TO CARCINOGEN TREATMENT (STUDY DURATION: 27 WK), Strain/Sex: F344/MALE, Target Tissue: Type of Lesion: ESOPHAGUS: TUMORS, Dose [Carcinogen]: 0.5 MG/KG IN 0.1 ML OF DMSO 1/WK FOR 18 WK): 15/15 (100%), 15/15 (100%), 0%, not significant | tumour outcome (control, treated, inhibition, significance) (Carcinogen: N-NITROSOBENZYLMETHYLAMINE, 12 UMOL/G IN DIET FOR DURATION OF STUDY BEGINNING 2 WK PRIOR TO CARCINOGEN TREATMENT (STUDY DURATION: 27 WK), Strain/Sex: F344/MALE, Target Tissue: Type of Lesion: ESOPHAGUS: TUMORS, Dose [Carcinogen]: 1.25 MG/KG IN 0.1 ML OF DMSO 1/WK FOR 18 WK): 15/15 (100%), 15/15 (100%), 0%, not significant | tumour outcome (control, treated, inhibition, significance) (Carcinogen: N-NITROSOMETHYLBENZYLAMINE, 400 PPM IN DIET FOR DURATION OF STUDY BEGINNING 1 WK POST CARCINOGEN TREATMENT (STUDY DURATION: 25 WK), Strain/Sex: F344/MALE, Target Tissue: Type of Lesion: ESOPHAGUS: TUMOR, Dose [Carcinogen]: 1 MG/KG 3/WK FOR 5 WK): 15/15 (100%), 14/15 (93%), 7%, not significant | tumour outcome (control, treated, inhibition, significance) (Carcinogen: N-NITROSOMETHYLBENZYLAMINE, 4000 PPM IN DIET FOR DURATION OF STUDY BEGINNING 1 WK POST CARCINOGEN TREATMENT (STUDY DURATION: 25 WK), Strain/Sex: F344/MALE, Target Tissue: Type of Lesion: ESOPHAGUS: TUMOR, Dose [Carcinogen]: 1 MG/KG 3/WK FOR 5 WK): 15/15 (100%), 10/15 (67%), 33%, p<0.05
